In US10323018B2 (Millennium Pharmaceuticals, Inc., priority 2015, dated 2019) one finds inhibition, IC50 and viability data, which are given here for 25 compounds.

Structures are written as SMILES.

One assay has as its target hNAMPT protein (Homo sapiens (Human), UniProt P43490). The assay can be described thus: NAMPT enzyme assay (TR-FRET/HTRF with BodiPY ligand). It is filed as binding. Particulars: for inhibition at 1 µM: NAMPT inhibition at compound concentration 1 μM, read-out: Percent Inhibition; for IC50: NAMPT inhibition, IC50 range class. The method, boiled down: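 His-tagged hNAMPT with anti-6His-Tb, incubated with compound and BodiPY ligand for 1 h at rt in the dark, in Tris-HCl pH 7.5 buffer with DTT, NaCl, MgCl2 and Tween 20. TR-FRET measured with 320 nm excitation as the 520/486 nm emission ratio. IC50 fitted relative to DMSO controls.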

In another assay the test system is PC3 cells. The assay can be described thus: PC3 growth inhibition (Cell-titer glo, 72 hours). It is filed as cell-based. Particulars: Homo sapiens, PC-3, 72 h, read-out: Percent Viability, PC3 cells, compound concentration 1.667 μM, 72 hours. The method, boiled down:
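PC3 cells grown in RPMI1640 plated at 8×10^4 cells/ml, incubated overnight, then exposed to compound diluted in AIM serum-free medium for 72 h at 37 °C, 5% CO2. Luminescence by CellTiter-Glo relative to DMSO controls; % viability at single concentration, GI50 or LD50 from concentration-response curves.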

Chain of hNAMPT protein (P43490 whole entry): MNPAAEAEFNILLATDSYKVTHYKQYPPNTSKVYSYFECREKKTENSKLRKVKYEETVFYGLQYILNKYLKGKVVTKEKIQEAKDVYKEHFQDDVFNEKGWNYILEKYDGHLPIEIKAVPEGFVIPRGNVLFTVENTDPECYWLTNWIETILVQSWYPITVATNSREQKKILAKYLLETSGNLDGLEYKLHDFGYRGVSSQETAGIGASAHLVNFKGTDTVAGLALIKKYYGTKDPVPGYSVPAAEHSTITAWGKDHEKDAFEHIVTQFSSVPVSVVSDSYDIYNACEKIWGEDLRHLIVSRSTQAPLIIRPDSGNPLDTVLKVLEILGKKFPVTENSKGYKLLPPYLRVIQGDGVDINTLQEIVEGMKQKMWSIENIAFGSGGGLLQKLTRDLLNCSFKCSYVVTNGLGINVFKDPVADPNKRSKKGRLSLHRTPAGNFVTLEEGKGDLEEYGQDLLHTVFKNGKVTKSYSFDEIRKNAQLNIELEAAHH

Consider `CCOc1cc(-c2ccn(C)c(=O)c2)nc2cc(C(=O)NCCCc3nnc[nH]3)ccc12` [Compound I-118, 4-ethoxy-2-(1-methyl-2-oxo-1,2-dihydropyridin-4-yl)-N-[3-(4H-1,2,4-triazol-3-yl)propyl]quinoline-7-carboxamide], for which, on hNAMPT protein, the inhibition at 1 µM turned out to be 99% and the IC50 fell in the range of 10 to 50 nM. Besides, in the assay on PC3 cells, the viability at 1.667 µM was determined as 2%.

For `CCOc1cc(-c2cncc(OC)c2)nc2cc(C(=O)NCCCc3nnc[nH]3)ccc12` [Compound I-210, 4-ethoxy-2-(5-methoxypyridin-3-yl)-N-[3-(4H-1,2,4-triazol-3-yl)propyl]quinoline-7-carboxamide], at hNAMPT protein, the inhibition at 1 µM came to 94% and the IC50 fell in the range of 10 to 50 nM. Further, the viability at 1.667 µM with PC3 cells worked out at 1%.

On to `CCOc1cc(-c2ccnc(OC)c2)nc2cc(C(=O)NCCc3cnn[nH]3)ccc12` [Compound I-195, 4-ethoxy-2-(2-methoxypyridin-4-yl)-N-[2-(1H-1,2,3-triazol-5-yl)ethyl]quinoline-7-carboxamide], for which, on hNAMPT protein, the inhibition at 1 µM was determined as 89% and the IC50 was 50 to 100 nM. Further, in the assay on PC3 cells, the viability at 1.667 µM worked out at 19%.

As to `CCOc1cc(-c2cc(Cl)ccc2F)nc2cc(C(=O)NCCCc3ncc[nH]3)ccc12` [Compound I-11, 2-(5-chloro-2-fluorophenyl)-4-ethoxy-N-[3-(1H-imidazol-2-yl)propyl]quinoline-7-carboxamide], at hNAMPT protein, the inhibition at 1 µM is over 99% and the IC50 is under 10 nM. The viability at 1.667 µM in the assay on PC3 cells stood at 1%.

Take `CCOc1cc(-c2ccc(F)cc2)nc2cc(C(=O)NCC3CC3c3ncc[nH]3)ccc12` (single isomer, unassigned) [Compound I-50, 4-Ethoxy-2-(4-fluorophenyl)-N-{[trans-(1,2)-2-(1H-imidazol-2-yl)cyclopropyl]methyl}quinoline-7-carboxamide]: at hNAMPT protein, the inhibition at 1 µM was determined as 99% and the IC50 is under 10 nM. Moreover, the viability at 1.667 µM in the assay on PC3 cells came to 3%.

Turning to `CCOc1cc(-c2cccnc2OC)nc2cc(C(=O)NCCCc3ccn[nH]3)ccc12` [Compound I-150, 4-ethoxy-2-(2-methoxypyridin-3-yl)-N-[3-(1H-pyrazol-5-yl)propyl]quinoline-7-carboxamide], on hNAMPT protein, the inhibition at 1 µM was determined as 95% and the IC50 was 10 to 50 nM. The viability at 1.667 µM with PC3 cells is 2%.

Regarding `CCOc1cc(-c2ccnc(C)c2)nc2cc(C(=O)NCc3ccn4ncnc4c3)ccc12` [Compound I-86, 4-ethoxy-2-(2-methylpyridin-4-yl)-N-([1,2,4]triazolo[1,5-a]pyridin-7-ylmethyl)quinoline-7-carboxamide], at hNAMPT protein, the inhibition at 1 µM is 99% and the concentration for half-maximal inhibition (IC50) was under 10 nM. Moreover, the viability at 1.667 µM with PC3 cells came out at 2%.

For the compound `CCCc1nc(-c2ccc(Cl)s2)nc2cc(C(=O)NCCCc3ncc[nH]3)ccc12` [Compound I-24, 2-(5-chloro-2-thienyl)-N-[3-(1H-imidazol-2-yl)propyl]-4-propylquinazoline-7-carboxamide], at hNAMPT protein, the inhibition at 1 µM was over 99% and the IC50 is under 10 nM. The viability at 1.667 µM with PC3 cells was 1%.

As to `CCOc1cc(-c2ccc(F)cc2)nc2cc(C(=O)NCc3nc(N)n[nH]3)ccc12` [Compound I-141, N-[(3-amino-1H-1,2,4-triazol-5-yl)methyl]-4-ethoxy-2-(4-fluorophenyl)quinoline-7-carboxamide], at hNAMPT protein, the inhibition at 1 µM turned out to be 82% and the IC50 is over 100 nM. In addition, the viability at 1.667 µM in the assay with PC3 cells stood at 9%.

With `CCOc1cc(-c2ccc(OC)nc2)nc2cc(C(=O)NCCCc3nnc[nH]3)ccc12` [Compound I-101, 4-ethoxy-2-(6-methoxypyridin-3-yl)-N-[3-(4H-1,2,4-triazol-3-yl)propyl]quinoline-7-carboxamide], on hNAMPT protein, the inhibition at 1 µM came out at 96% and the IC50 was in the range of 10 to 50 nM. In addition, the viability at 1.667 µM with PC3 cells worked out at 2%.

In the case of `CCOc1cc(-c2cc(OC)ncc2F)nc2cc(C(=O)NCc3nc4cnccc4[nH]3)ccc12` [Compound I-188, 4-ethoxy-2-(5-fluoro-2-methoxypyridin-4-yl)-N-(1H-imidazo[4,5-c]pyridin-2-ylmethyl)quinoline-7-carboxamide], on hNAMPT protein, the inhibition at 1 µM came to 99% and the 50% inhibitory concentration (IC50) is under 10 nM. Further, the viability at 1.667 µM in the assay with PC3 cells turned out to be 3%.

Regarding `CCOc1cc(-c2cnc(OC)c(F)c2)nc2cc(C(=O)NCCCc3nnc[nH]3)ccc12` [Compound I-89, 4-ethoxy-2-(5-fluoro-6-methoxypyridin-3-yl)-N-[3-(4H-1,2,4-triazol-3-yl)propyl]quinoline-7-carboxamide], at hNAMPT protein, the inhibition at 1 µM came out at 96% and the half-inhibitory concentration (IC50) was 10 to 50 nM. Besides, the viability at 1.667 µM with PC3 cells was 2%.

In the case of `COCCOc1cc(-c2ccc(F)cc2)nc2cc(C(=O)NCc3ccn4ncnc4c3)ccc12` [Compound I-82, 2-(4-fluorophenyl)-4-(2-methoxyethoxy)-N-([1,2,4]triazolo[1,5-a]pyridin-7-ylmethyl)quinoline-7-carboxamide], on hNAMPT protein, the inhibition at 1 µM amounted to 100% and the half-inhibitory concentration (IC50) is under 10 nM. The viability at 1.667 µM in the assay with PC3 cells was found to be 2%.

Consider `CCNc1cc(OCC)c2ccc(C(=O)NCCCc3ncc[nH]3)cc2n1` [Compound I-42, 4-ethoxy-2-(ethylamino)-N-[3-(1H-imidazol-2-yl)propyl]quinoline-7-carboxamide], for which, on hNAMPT protein, the inhibition at 1 µM is 83% and the half-inhibitory concentration (IC50) is over 100 nM. In addition, the viability at 1.667 µM in the assay with PC3 cells came to 11%.

With `CCOc1cc(-c2ccnc(OC)c2)nc2cc(C(=O)NCCCc3ccn[nH]3)ccc12` [Compound I-155, 4-ethoxy-2-(2-methoxypyridin-4-yl)-N-[3-(1H-pyrazol-5-yl)propyl]quinoline-7-carboxamide], on hNAMPT protein, the inhibition at 1 µM was determined as 98% and the 50% inhibitory concentration (IC50) was 10 to 50 nM. For the same compound, the viability at 1.667 µM with PC3 cells stood at 2%.

As to `CCOc1cc(-c2ccc(F)cc2)nc2cc(C(=O)N[C@@H](C)c3nc4cnccc4[nH]3)ccc12` [Compound I-160, 4-ethoxy-2-(4-fluorophenyl)-N-[(1S)-1-(1H-imidazo[4,5-c]pyridin-2-yl)ethyl]quinoline-7-carboxamide], on hNAMPT protein, the inhibition at 1 µM was 60% and the half-inhibitory concentration (IC50) was over 100 nM. Further, the viability at 1.667 µM in the assay with PC3 cells was over 99%.

For the compound `CCOc1cc(-c2ccc(=O)n(C)c2)nc2cc(C(=O)NCCCc3cc[nH]n3)ccc12` [Compound I-123, 4-ethoxy-2-(1-methyl-6-oxo-1,6-dihydropyridin-3-yl)-N-[3-(1H-pyrazol-3-yl)propyl]quinoline-7-carboxamide], at hNAMPT protein, the inhibition at 1 µM was over 99% and the IC50 fell in the range of 10 to 50 nM. In the assay with PC3 cells, the viability at 1.667 µM worked out at 2%.

Take `CCOc1cc(-c2ccc(F)cc2OC)nc2cc(C(=O)NCCCc3cnn[nH]3)ccc12` [Compound I-121, 4-ethoxy-2-(4-fluoro-2-methoxyphenyl)-N-[3-(1H-1,2,3-triazol-5-yl)propyl]quinoline-7-carboxamide]: at hNAMPT protein, the inhibition at 1 µM was over 99% and the IC50 is under 10 nM. The viability at 1.667 µM in the assay on PC3 cells amounted to 2%.

`CCOc1cc(-c2ccc(OC)nc2)nc2cc(C(=O)NCc3nc4cnccc4[nH]3)ccc12` [Compound I-193, 4-ethoxy-N-(1H-imidazo[4,5-c]pyridin-2-ylmethyl)-2-(6-methoxypyridin-3-yl)quinoline-7-carboxamide]: on hNAMPT protein, the inhibition at 1 µM is over 99% and the IC50 is under 10 nM. In addition, the viability at 1.667 µM with PC3 cells came to 3%.

As to `CCOc1cc(-c2ccc(C)nc2)nc2cc(C(=O)NCCCc3[nH]nnc3C)ccc12` [Compound I-112, 4-ethoxy-2-(6-methylpyridin-3-yl)-N-[3-(4-methyl-1H-1,2,3-triazol-5-yl)propyl]quinoline-7-carboxamide], on hNAMPT protein, the inhibition at 1 µM came out at 99% and the IC50 is 10 to 50 nM. Further, the viability at 1.667 µM in the assay with PC3 cells is 2%.

Take `CCOc1cc(-c2ccc(C)nc2OC)nc2cc(C(=O)NCc3nc4cnccc4[nH]3)ccc12` [Compound I-174, 4-ethoxy-N-(1H-imidazo[4,5-c]pyridin-2-ylmethyl)-2-(2-methoxy-6-methylpyridin-3-yl)quinoline-7-carboxamide]: at hNAMPT protein, the inhibition at 1 µM is over 99% and the IC50 was under 10 nM. Also, in the assay with PC3 cells, the viability at 1.667 µM is 1%.

In the case of `CCOc1cc(-c2ccc(C)nc2)nc2cc(C(=O)NCCc3c[nH]nn3)ccc12` [Compound I-169, 4-ethoxy-2-(6-methylpyridin-3-yl)-N-[2-(1H-1,2,3-triazol-4-yl)ethyl]quinoline-7-carboxamide], on hNAMPT protein, the inhibition at 1 µM amounted to 97% and the IC50 was in the range of 10 to 50 nM. Besides, the viability at 1.667 µM in the assay on PC3 cells turned out to be 3%.

For the compound `CCOc1cc(-c2ccc(C)nc2OC)nc2cc(C(=O)NCCc3c[nH]nc3C)ccc12` [Compound I-92, 4-ethoxy-2-(2-methoxy-6-methylpyridin-3-yl)-N-[2-(3-methyl-1H-pyrazol-4-yl)ethyl]quinoline-7-carboxamide], on hNAMPT protein, the inhibition at 1 µM came to 95% and the IC50 fell in the range of 10 to 50 nM. For the same compound, the viability at 1.667 µM in the assay on PC3 cells was 2%.

As to `CCOc1cc(-c2ccc(F)cc2OC)nc2cc(C(=O)NCCc3c[nH]nc3C)ccc12` [Compound I-129, 4-ethoxy-2-(4-fluoro-2-methoxyphenyl)-N-[2-(3-methyl-1H-pyrazol-4-yl)ethyl]quinoline-7-carboxamide], on hNAMPT protein, the inhibition at 1 µM was determined as 96% and the IC50 was in the range of 10 to 50 nM. In the assay with PC3 cells, the viability at 1.667 µM was determined as 2%.

With `COc1nc(-c2ccc(Cl)cc2)nc2cc(C(=O)NCCCc3ncc[nH]3)ccc12` [Compound I-10, 2-(4-chlorophenyl)-N-[3-(1H-imidazol-2-yl)propyl]-4-methoxyquinazoline-7-carboxamide], on hNAMPT protein, the inhibition at 1 µM turned out to be 100% and the IC50 was under 10 nM. In addition, in the assay with PC3 cells, the viability at 1.667 µM came to 1%.

One may read the inhibition as the relative decrease from the control value, in per cent. The term IC50 denotes the point on the concentration scale where inhibition reaches its midpoint. Read a high IC50 as a need for much substance.
